Patent EP0908457B1, “3-(1,2-benzisothiazol- and isoxazol-5-Y1)-2,4(1H,3H)-pyrimidinedione or thione and 3-(1,2-benzisothiazol- and isoxazol-5-y1)-4(3H)-pyrimidinone or thione herbicidal agents” (BASF AKTIENGESELLSCHAFT, priority 1997, dated 1999)

Experiments:
Sagittaria pygmaea, L. = assay: Preemergence weed control under flooded paddy conditions, SAGPY (Arrowhead (Pygmaea)); type: in vivo; details: flooded paddy, rated three to four weeks after treatment; for herbicidal effect rating, SAGPY: preemergence weeds; for SAGPY herbicidal effect rating: preemergence; on herbicidal effect rating, SAGPY: meaning of each grade not given here
[1] = test system: Cyperus serotinus, Rottb.; assay: Preemergence weed control under flooded paddy conditions, CYPSE (Flatsedge); type: in vivo; details: rated three to four weeks after treatment; for herbicidal effect rating, CYPSE: preemergence weeds; for CYPSE herbicidal effect rating: preemergence; on herbicidal effect rating, CYPSE: meaning of each grade not given here
[2] = test system: Oryza sativa, (L.) Tebonnet; assay: Rice tolerance to post-transplant applications under flooded paddy conditions (Example 187), ORYSAT (Rice, Tebonnet); details: rated three to four weeks after treatment
Cyperus iria = assay: Preemergence weed control under flooded paddy conditions, CYPIR (Rice Flatsedge); type: in vivo; details: flooded paddy, rated three to four weeks after treatment; for herbicidal effect rating, CYPIR: preemergence weeds; for CYPIR herbicidal effect rating: preemergence; on herbicidal effect rating, CYPIR: meaning of each grade not given here
[3] = test system: Echinochloa oryzoides (Ard.) Fritsch.; assay: Preemergence weed control under flooded paddy conditions, ECHORC (Watergrass (Calif.)); type: in vivo; details: flooded paddy, rated three to four weeks after treatment; for herbicidal effect rating, ECHORC: preemergence weeds; for ECHORC herbicidal effect rating: preemergence; on herbicidal effect rating, ECHORC: meaning of each grade not given here
[4] = test system: Monochoria vaginalis, Presl.; assay: Preemergence weed control under flooded paddy conditions, MOOVA (Monochoria); type: in vivo; details: flooded paddy, rated three to four weeks after treatment; for herbicidal effect rating, MOOVA: preemergence weeds; for MOOVA herbicidal effect rating: preemergence; on herbicidal effect rating, MOOVA: meaning of each grade not given here

Row | SMILES | herbicidal effect rating, SAGPY (Sagittaria pygmaea, L.; 0.0313 kg/ha) | herbicidal effect rating, SAGPY (Sagittaria pygmaea, L.; 0.0625 kg/ha) | herbicidal effect rating, SAGPY (Sagittaria pygmaea, L.; 0.1250 kg/ha) | herbicidal effect rating, SAGPY (Sagittaria pygmaea, L.; 0.2500 kg/ha) | herbicidal effect rating, CYPSE ([1]; 0.0313 kg/ha) | herbicidal effect rating, CYPSE ([1]; 0.0625 kg/ha) | herbicidal effect rating, CYPSE ([1]; 0.1250 kg/ha) | herbicidal effect rating, CYPSE ([1]; 0.2500 kg/ha) | herbicidal effect rating, ORYSAT (rice tolerance) ([2]; 0.0313 kg/ha) | herbicidal effect rating, ORYSAT (rice tolerance) ([2]; 0.0625 kg/ha) | herbicidal effect rating, ORYSAT (rice tolerance) ([2]; 0.1250 kg/ha) | herbicidal effect rating, ORYSAT (rice tolerance) ([2]; 0.2500 kg/ha) | herbicidal effect rating, CYPIR (Cyperus iria; 0.0313 kg/ha) | herbicidal effect rating, CYPIR (Cyperus iria; 0.0625 kg/ha) | herbicidal effect rating, CYPIR (Cyperus iria; 0.1250 kg/ha) | herbicidal effect rating, CYPIR (Cyperus iria; 0.2500 kg/ha) | herbicidal effect rating, ECHORC ([3]; 0.0313 kg/ha) | herbicidal effect rating, ECHORC ([3]; 0.0625 kg/ha) | herbicidal effect rating, ECHORC ([3]; 0.2500 kg/ha) | herbicidal effect rating, MOOVA ([4]; 0.2500 kg/ha) | further results
1 | CCCCOCc1nsc2ccc(-n3c(=O)cc(C(F)(F)F)n(C)c3=O)cc12 [Example 204, 3-[3-(Butoxymethyl)-1,2-benzisothiazol-5-yl]-1-methyl-6-(trifluoromethyl)-2,4(1H,3H)-pyrimidinedione] | 0.0 | 0.0 | 0.0 | 0.0 | 0.0 | 0.0 | 2.0 | 7.0 | 3.0 | 4.0 | 7.0 | 7.0 | 9.0 | 9.0 | 9.0 | 9.0 | 0.0 | 2.0 | 9.0 | 7.0 | herbicidal effect rating, ECHORC ([3]; 0.1250 kg/ha): 4.0; herbicidal effect rating, MOOVA ([4]; 0.0313 kg/ha): 0.0; herbicidal effect rating, MOOVA ([4]; 0.0625 kg/ha): 2.0; herbicidal effect rating, MOOVA ([4]; 0.1250 kg/ha): 4.0
2 | C=CC(C)OCc1nsc2ccc(-n3c(=O)cc(C(F)(F)F)n(C)c3=O)cc12 (stereo not drawn) [Example 206, 1-Methyl-3-{3-[(1-methylallyloxy)methyl]-1,2-benzisothiazol-5-yl]-6-(trifluoromethyl)-2,4(1H,3H)-pyrimidinedione] | 0.0 | 0.0 | 1.0 | 4.0 | 0.0 | 2.0 | 7.0 | 7.0 | 5.0 | 6.0 | 7.0 | 9.0 | 9.0 | 9.0 | 9.0 | 9.0 | 0.0 | 2.0 | 9.0 | 4.0 | herbicidal effect rating, ECHORC ([3]; 0.1250 kg/ha): 2.0; herbicidal effect rating, MOOVA ([4]; 0.0313 kg/ha): 0.0; herbicidal effect rating, MOOVA ([4]; 0.0625 kg/ha): 0.0; herbicidal effect rating, MOOVA ([4]; 0.1250 kg/ha): 1.0
3 | Cn1c(C(F)(F)F)cc(=O)n(-c2ccc3snc(COC(CF)CF)c3c2)c1=O [Example 207, 3-{3-{[2-Fluoro-1-(fluoromethyl)ethoxy]methyl}-1,2-benzisothiazol-5-yl}-1-methyl-6-(trifluoromethyl)-2,4(1H,3H)-pyrimidinedione] | – | – | – | 1.0 | – | – | – | 6.0 | – | – | – | 7.5 | – | – | – | 8.5 | – | – | 5.5 | 7.5 | SAGPY herbicidal effect rating (Sagittaria pygmaea, L.; Rate 0.0313 kg/ha): 0.0; SAGPY herbicidal effect rating (Sagittaria pygmaea, L.; Rate 0.0625 kg/ha): 0.0; SAGPY herbicidal effect rating (Sagittaria pygmaea, L.; Rate 0.1250 kg/ha): 0.0; CYPSE herbicidal effect rating ([1]; Rate 0.0313 kg/ha): 0.0; CYPSE herbicidal effect rating ([1]; Rate 0.0625 kg/ha): 0.0; CYPSE herbicidal effect rating ([1]; Rate 0.1250 kg/ha): 1.0; ORYSAT herbicidal effect rating ([2]; Rate 0.0313 kg/ha): 5.0; ORYSAT herbicidal effect rating ([2]; Rate 0.0625 kg/ha): 6.0; ORYSAT herbicidal effect rating ([2]; Rate 0.1250 kg/ha): 7.0; CYPIR herbicidal effect rating (Cyperus iria; Rate 0.0313 kg/ha): 5.5; CYPIR herbicidal effect rating (Cyperus iria; Rate 0.0625 kg/ha): 6.5; CYPIR herbicidal effect rating (Cyperus iria; Rate 0.1250 kg/ha): 8.5; ECHORC herbicidal effect rating ([3]; Rate 0.0313 kg/ha): 1.0; ECHORC herbicidal effect rating ([3]; Rate 0.0625 kg/ha): 1.5; ECHORC herbicidal effect rating ([3]; Rate 0.1250 kg/ha): 2.0; MOOVA herbicidal effect rating ([4]; Rate 0.0313 kg/ha): 4.0; MOOVA herbicidal effect rating ([4]; Rate 0.0625 kg/ha): 4.5; MOOVA herbicidal effect rating ([4]; Rate 0.1250 kg/ha): 5.5
